From paper doi:10.1101/2023.04.18.537371v1 (bioRxiv, 2023)
Like-named read-outs stand apart in the source and are kept apart here. Peptide text beside a SMILES is read from it.

Key:
[1] = In vitro protein binding, rapid equilibrium dialysis; format: in vitro ADME; conditions: SD, rat, plasma
[2] = as above; format: in vitro ADME; conditions: cynomolgus monkey, plasma
[3] = Plasma and brain levels in male CD-1 mice after a single IP dose; format: in vivo, CD-1 mouse; conditions: for Tissue Homogenate Conc / Plasma Conc: male CD-1 mice, IP 10 mg/kg single
CYP2C8 = target: T1, CYP2C8 (Homo sapiens, UniProt P10632); experiment: CYP time-dependent inhibition assay; format: in vitro ADME
T1 sequence (P10632 1-490): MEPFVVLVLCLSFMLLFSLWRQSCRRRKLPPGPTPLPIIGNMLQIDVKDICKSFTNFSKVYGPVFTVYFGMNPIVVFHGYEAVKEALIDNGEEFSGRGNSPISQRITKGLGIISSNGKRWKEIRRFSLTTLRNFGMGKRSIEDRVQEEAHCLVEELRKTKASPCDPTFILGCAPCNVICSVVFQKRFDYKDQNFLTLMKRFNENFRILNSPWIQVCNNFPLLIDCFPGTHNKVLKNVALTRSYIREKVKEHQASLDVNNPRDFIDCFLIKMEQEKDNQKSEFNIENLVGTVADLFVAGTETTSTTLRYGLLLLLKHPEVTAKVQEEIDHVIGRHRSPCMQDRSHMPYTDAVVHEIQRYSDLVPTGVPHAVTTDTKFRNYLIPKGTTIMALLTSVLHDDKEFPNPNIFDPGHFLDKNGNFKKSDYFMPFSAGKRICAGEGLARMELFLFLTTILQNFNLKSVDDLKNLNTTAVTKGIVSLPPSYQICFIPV

P-gp = P-gp (Homo sapiens, UniProt P08183); experiment: Inhibition of P-gp in Caco-2 cells; format: in vitro ADME
Chain of P-gp (P08183 whole entry): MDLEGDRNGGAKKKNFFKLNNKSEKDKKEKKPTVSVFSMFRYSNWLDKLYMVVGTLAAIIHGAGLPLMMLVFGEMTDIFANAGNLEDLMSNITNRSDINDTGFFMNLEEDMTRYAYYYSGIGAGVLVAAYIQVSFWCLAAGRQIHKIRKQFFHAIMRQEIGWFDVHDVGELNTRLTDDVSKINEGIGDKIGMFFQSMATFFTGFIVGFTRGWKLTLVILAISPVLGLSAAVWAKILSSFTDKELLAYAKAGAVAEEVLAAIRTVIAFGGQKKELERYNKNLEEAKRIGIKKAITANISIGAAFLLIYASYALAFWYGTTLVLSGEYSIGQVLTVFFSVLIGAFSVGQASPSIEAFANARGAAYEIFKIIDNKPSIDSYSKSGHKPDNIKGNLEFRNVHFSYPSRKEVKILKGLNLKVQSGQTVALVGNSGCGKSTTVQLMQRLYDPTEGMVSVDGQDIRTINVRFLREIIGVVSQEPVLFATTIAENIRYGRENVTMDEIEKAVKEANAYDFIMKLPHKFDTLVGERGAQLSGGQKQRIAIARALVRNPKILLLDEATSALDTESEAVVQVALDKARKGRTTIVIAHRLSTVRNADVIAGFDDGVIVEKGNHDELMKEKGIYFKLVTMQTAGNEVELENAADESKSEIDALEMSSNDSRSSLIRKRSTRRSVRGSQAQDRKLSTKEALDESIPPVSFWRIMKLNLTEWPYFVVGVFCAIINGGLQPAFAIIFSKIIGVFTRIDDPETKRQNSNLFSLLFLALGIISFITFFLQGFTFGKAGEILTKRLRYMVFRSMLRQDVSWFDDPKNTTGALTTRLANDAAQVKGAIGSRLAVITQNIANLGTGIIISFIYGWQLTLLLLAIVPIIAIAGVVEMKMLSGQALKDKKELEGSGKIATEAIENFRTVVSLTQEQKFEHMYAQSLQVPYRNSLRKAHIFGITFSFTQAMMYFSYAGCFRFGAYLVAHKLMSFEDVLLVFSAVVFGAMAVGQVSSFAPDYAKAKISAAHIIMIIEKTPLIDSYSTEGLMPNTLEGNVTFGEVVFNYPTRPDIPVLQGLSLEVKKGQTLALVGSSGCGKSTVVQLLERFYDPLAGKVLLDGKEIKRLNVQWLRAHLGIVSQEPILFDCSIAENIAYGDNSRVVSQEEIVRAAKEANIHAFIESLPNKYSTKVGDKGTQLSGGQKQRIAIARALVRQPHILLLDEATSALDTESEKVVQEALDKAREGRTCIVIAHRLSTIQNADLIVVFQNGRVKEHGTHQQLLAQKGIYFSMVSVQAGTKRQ

MATE2-K = MATE2-K (Homo sapiens, UniProt Q86VL8); experiment: Transporter inhibition in HEK293 cells; format: in vitro ADME
Chain of MATE2-K (Q86VL8 1-566 isoform Q86VL8-3): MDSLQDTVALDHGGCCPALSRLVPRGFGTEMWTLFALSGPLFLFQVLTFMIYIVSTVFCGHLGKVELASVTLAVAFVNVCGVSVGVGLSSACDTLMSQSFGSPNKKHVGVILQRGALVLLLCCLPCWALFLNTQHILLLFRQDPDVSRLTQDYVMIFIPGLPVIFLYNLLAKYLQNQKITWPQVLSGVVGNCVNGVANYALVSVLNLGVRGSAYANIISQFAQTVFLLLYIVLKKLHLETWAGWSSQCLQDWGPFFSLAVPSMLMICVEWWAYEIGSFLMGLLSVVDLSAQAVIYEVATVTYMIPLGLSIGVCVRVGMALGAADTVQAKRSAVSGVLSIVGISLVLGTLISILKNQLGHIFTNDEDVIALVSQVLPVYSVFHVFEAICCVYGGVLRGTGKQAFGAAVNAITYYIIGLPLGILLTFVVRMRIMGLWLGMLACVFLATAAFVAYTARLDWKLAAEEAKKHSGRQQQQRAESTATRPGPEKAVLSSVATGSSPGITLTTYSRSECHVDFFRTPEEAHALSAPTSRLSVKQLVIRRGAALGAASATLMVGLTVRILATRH

CYP2B6 [4] = format: in vitro ADME; conditions: cryopreserved human hepatocytes, three donors, 0.100 to 15.0 μM, 48 h, 37°C
CYP2B6 [5] = target: T2, CYP2B6 (Homo sapiens, UniProt P20813); experiment: biochemical; format: in vitro ADME
T2 sequence (P20813 1-491): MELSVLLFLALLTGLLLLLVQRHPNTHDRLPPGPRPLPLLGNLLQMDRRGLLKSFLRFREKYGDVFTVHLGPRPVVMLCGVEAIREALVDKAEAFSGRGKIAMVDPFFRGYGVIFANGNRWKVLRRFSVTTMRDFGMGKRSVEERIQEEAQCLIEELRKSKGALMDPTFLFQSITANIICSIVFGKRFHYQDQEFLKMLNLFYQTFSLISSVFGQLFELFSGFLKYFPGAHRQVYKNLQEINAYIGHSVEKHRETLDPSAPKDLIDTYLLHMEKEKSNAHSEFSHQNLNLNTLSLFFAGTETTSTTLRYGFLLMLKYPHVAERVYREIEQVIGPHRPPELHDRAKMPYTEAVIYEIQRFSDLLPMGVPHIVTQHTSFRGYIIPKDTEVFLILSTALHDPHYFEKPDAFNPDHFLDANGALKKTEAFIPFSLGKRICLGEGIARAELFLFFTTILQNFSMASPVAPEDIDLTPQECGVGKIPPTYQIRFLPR

CYP3A = experiment: CYP time-dependent inhibition assay; format: in vitro ADME, human
human hepatocytes = experiment: Metabolite identification in hepatocytes; format: in vitro ADME; conditions: cryopreserved human hepatocytes, FC-12738 10 μM, 37 °C, 240 min, LC-UV-MS
CYP2B6 [6] = target: T2, CYP2B6; experiment: biochemical; format: in vitro ADME; remark: listed apart in the source
OAT3 = OAT3 (Homo sapiens, UniProt Q8TCC7); experiment: Transporter inhibition in HEK293 cells; format: in vitro ADME
Chain of OAT3 (Q8TCC7 whole entry): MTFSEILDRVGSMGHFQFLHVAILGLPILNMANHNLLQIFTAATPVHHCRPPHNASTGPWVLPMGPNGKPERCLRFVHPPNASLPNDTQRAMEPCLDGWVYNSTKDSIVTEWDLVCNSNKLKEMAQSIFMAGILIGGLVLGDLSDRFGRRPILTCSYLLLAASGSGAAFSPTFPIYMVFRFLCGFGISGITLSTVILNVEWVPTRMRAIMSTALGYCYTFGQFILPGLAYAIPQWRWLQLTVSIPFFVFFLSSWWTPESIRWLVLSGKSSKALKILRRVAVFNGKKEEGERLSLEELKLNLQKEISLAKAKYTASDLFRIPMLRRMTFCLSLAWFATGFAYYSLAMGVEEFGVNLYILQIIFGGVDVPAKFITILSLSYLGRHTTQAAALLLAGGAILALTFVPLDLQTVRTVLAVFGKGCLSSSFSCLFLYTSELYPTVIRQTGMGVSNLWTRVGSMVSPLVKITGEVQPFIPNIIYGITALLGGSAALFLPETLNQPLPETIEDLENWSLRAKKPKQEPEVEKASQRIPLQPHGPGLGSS

OATP1B3 = OATP1B3 (Homo sapiens, UniProt Q9NPD5); experiment: Transporter inhibition in HEK293 cells; format: in vitro ADME
Chain of OATP1B3 (Q9NPD5 whole entry): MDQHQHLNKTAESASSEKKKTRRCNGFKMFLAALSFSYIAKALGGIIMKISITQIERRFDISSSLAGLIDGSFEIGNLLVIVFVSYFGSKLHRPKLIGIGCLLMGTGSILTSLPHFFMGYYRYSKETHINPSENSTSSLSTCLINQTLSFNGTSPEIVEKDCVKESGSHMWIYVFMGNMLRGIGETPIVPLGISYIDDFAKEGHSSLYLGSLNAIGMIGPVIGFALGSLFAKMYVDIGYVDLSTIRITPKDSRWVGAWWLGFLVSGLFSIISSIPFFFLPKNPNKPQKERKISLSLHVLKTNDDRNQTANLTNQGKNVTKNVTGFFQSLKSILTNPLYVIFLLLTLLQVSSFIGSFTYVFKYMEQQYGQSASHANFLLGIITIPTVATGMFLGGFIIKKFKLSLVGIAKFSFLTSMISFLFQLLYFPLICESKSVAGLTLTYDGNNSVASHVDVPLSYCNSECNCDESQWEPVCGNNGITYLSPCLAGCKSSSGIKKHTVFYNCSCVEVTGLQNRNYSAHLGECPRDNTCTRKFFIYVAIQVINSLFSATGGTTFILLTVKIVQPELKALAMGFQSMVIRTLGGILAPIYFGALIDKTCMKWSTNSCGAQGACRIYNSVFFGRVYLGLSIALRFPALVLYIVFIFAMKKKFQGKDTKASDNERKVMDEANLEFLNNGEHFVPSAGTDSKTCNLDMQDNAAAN

OATP1B1 = OATP1B1 (Homo sapiens, UniProt Q9Y6L6); experiment: Transporter inhibition in HEK293 cells; format: in vitro ADME
Chain of OATP1B1 (Q9Y6L6 whole entry, species assumed): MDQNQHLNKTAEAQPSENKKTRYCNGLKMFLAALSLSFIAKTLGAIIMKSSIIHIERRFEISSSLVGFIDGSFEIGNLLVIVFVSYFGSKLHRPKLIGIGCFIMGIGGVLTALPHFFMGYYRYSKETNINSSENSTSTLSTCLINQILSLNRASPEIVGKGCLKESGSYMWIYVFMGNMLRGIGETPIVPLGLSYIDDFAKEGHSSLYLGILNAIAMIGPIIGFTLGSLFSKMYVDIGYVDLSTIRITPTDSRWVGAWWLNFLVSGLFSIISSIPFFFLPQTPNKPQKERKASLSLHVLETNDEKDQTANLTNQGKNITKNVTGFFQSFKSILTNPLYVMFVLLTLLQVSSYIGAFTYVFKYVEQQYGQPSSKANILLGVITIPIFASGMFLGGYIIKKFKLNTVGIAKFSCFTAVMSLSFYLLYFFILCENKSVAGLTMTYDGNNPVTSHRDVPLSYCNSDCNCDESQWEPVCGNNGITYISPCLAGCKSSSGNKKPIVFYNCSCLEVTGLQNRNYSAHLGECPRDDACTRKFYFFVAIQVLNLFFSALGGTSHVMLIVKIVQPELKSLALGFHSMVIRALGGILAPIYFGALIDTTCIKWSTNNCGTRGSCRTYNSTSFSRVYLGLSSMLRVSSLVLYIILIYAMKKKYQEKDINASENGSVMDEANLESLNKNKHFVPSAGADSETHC

[7] = male, CD-1, mouse, brain homogenate, ip, 10 mg/kg
[8] = male, CD-1, mouse, brain, ip, 10 mg/kg
[9] = male, CD-1, mouse, plasma, ip, 10 mg/kg
[10] = cutoff IC50 shift >= 1.5-fold, 30 min pre-incubation ± NADPH

Compound: CC(C)[C@@H](NC(=O)[C@H](N)Cc1ccc(O)cc1)C(=O)N[C@H](CC(=O)O)C(=O)N[C@H](CCCCN)C(=O)N[C@H](CCCNC(=N)N)C(=O)O [FC-12738, (D-Tyr)-(D-Val)-(D-Asp)-(D-Lys)-(D-Arg)] (HELM PEPTIDE1{[dY].[dV].[dD].[dK].[dR]}$$$$V2.0)
- fraction unbound at 6 h, 0.2 µM [1]: 0.482
- fraction unbound at 6 h, 2 µM [1]: 0.443
- fraction unbound at 6 h, 10 µM [1]: 0.493
- fraction unbound at 6 h, 0.2 µM [2]: 0.538
- fraction unbound at 6 h, 10 µM [2]: 0.736
- Tissue Homogenate Conc ([3]; brain homogenate, 0.5 h, animal 2): 17.6 ng/mL
- Tissue Homogenate Conc ([3]; brain homogenate, 0.5 h, animal 3): 14.1 ng/mL
- Tissue Homogenate Conc ([3]; brain homogenate, 1 h, animal 1): 8.28 ng/mL
- Tissue Homogenate Conc ([3]; brain homogenate, 1 h, animal 2): 10.1 ng/mL
- Tissue Homogenate Conc ([3]; brain homogenate, 1 h, animal 3): 8.41 ng/mL
- Tissue Homogenate Conc ([3]; brain homogenate, 2 h, animal 1): 6.96 ng/mL
- Tissue Homogenate Conc ([3]; brain homogenate, 2 h, animal 2): 5.73 ng/mL
- Tissue Homogenate Conc ([3]; brain homogenate, 2 h, animal 3): 7.47 ng/mL
- Tissue Homogenate Conc ([3]; brain homogenate, 4 h, animal 1): 1.76 ng/mL
- Tissue Homogenate Conc ([3]; brain homogenate, 4 h, animal 2): 1.22 ng/mL
- Tissue Homogenate Conc ([3]; brain homogenate, 4 h, animal 3): 1.06 ng/mL
- level at 0.5 h [3, 7]: 16.4 ng/mL
- level at 1 h [3, 7]: 8.93 ng/mL
- level at 2 h [3, 7]: 6.72 ng/mL
- level at 4 h [3, 7]: 1.35 ng/mL
- tissue level at time at 0.5 h [3, 8]: 65.5 ng/g
- tissue level at time at 1 h [3, 8]: 35.7 ng/g
- tissue level at time at 2 h [3, 8]: 26.9 ng/g
- tissue level at time at 4 h [3, 8]: 5.39 ng/g
- level at 0.5 h [3, 9]: 2090 ng/mL
- level at 1 h [3, 9]: 1210 ng/mL
- level at 2 h [3, 9]: 627 ng/mL
- level at 4 h [3, 9]: 84.1 ng/mL
- level at 8 h [3, 9]: 16.7 ng/mL
- Plasma Conc ([3]; plasma, 0.5 h, animal 1, LC-MS/MS): 2230 ng/mL
- Plasma Conc ([3]; plasma, 0.5 h, animal 2): 1790 ng/mL
- Plasma Conc ([3]; plasma, 0.5 h, animal 3): 2260 ng/mL
- Plasma Conc ([3]; plasma, 1 h, animal 1): 885 ng/mL
- Plasma Conc ([3]; plasma, 1 h, animal 2): 1320 ng/mL
- Plasma Conc ([3]; plasma, 1 h, animal 3): 1420 ng/mL
- Plasma Conc ([3]; plasma, 2 h, animal 1): 543 ng/mL
- Plasma Conc ([3]; plasma, 2 h, animal 2): 592 ng/mL
- Plasma Conc ([3]; plasma, 2 h, animal 3): 745 ng/mL
- Plasma Conc ([3]; plasma, 4 h, animal 1): 97.9 ng/mL
- Plasma Conc ([3]; plasma, 4 h, animal 2): 74.6 ng/mL
- Plasma Conc ([3]; plasma, 4 h, animal 3): 79.8 ng/mL
- Plasma Conc ([3]; plasma, 8 h, animal 1): 19.1 ng/mL
- Plasma Conc ([3]; plasma, 8 h, animal 2): 17.5 ng/mL
- Plasma Conc ([3]; plasma, 8 h, animal 3): 13.4 ng/mL
- IC50 (CYP2C8): > 100 µM
- Time-dependent inhibition of CYP2C8 (CYP2C8; [10]): no time-dependent inhibition
- IC50 (P-gp): > 100 µM
- IC50 (MATE2-K): > 100 µM
- Induction of CYP2B6 (enzyme activity and gene expression) (CYP2B6 [4]): not considered as an inducer
- IC50 (CYP2B6 [5]): > 100 µM
- IC50 at 30 min (CYP3A; human, pooled human liver microsomes): > 100 µM
- Time-dependent inhibition of CYP3A (CYP3A; midazolam and testosterone as substrates, cutoff IC50 shift >= 1.5-fold): no time-dependent inhibition
- Relative Abundance (UV%) (human hepatocytes): 91.82%
- IC50 (CYP2B6 [6]): > 100 µM
- Time-dependent inhibition of CYP2B6 (CYP2B6 [6]; [10]): no time-dependent inhibition
- IC50 (OAT3): > 100 µM
- IC50 (OATP1B3): > 100 µM
- IC50 (OATP1B1): > 100 µM
